Measurements published in ChEMBL document CHEMBL5113538, “Discovery of Novel Allosteric EGFR L858R Inhibitors for the Treatment of Non-Small-Cell Lung Cancer as a Single Agent or in Combination with Osimertinib” (J Med Chem, 2022).

Key:
[1] = Toxicity in Balb/c nude mouse allografted with mouse BaF3 cells harboring EGFR L858R/C797S mutant assessed as tolerability at 10 mg/kg, po administered twice daily for 20 days; assay type: organism-based; conditions: in vivo, 480 h, time 20 day
[2] = Tlast in CD1 mouse at 1 mg/kg, iv administered as single dose measured after 24 hrs by LC-MS/MS analysis; assay type: ADME, organism-based; conditions: in vivo
[3] = molecular target: Epidermal growth factor receptor (Homo sapiens, UniProt P00533, C797S/L858R)
Chain of Epidermal growth factor receptor (Homo sapiens, UniProt P00533, C797S/L858R) (P00533 25-1210 C797S/L858R limits assumed): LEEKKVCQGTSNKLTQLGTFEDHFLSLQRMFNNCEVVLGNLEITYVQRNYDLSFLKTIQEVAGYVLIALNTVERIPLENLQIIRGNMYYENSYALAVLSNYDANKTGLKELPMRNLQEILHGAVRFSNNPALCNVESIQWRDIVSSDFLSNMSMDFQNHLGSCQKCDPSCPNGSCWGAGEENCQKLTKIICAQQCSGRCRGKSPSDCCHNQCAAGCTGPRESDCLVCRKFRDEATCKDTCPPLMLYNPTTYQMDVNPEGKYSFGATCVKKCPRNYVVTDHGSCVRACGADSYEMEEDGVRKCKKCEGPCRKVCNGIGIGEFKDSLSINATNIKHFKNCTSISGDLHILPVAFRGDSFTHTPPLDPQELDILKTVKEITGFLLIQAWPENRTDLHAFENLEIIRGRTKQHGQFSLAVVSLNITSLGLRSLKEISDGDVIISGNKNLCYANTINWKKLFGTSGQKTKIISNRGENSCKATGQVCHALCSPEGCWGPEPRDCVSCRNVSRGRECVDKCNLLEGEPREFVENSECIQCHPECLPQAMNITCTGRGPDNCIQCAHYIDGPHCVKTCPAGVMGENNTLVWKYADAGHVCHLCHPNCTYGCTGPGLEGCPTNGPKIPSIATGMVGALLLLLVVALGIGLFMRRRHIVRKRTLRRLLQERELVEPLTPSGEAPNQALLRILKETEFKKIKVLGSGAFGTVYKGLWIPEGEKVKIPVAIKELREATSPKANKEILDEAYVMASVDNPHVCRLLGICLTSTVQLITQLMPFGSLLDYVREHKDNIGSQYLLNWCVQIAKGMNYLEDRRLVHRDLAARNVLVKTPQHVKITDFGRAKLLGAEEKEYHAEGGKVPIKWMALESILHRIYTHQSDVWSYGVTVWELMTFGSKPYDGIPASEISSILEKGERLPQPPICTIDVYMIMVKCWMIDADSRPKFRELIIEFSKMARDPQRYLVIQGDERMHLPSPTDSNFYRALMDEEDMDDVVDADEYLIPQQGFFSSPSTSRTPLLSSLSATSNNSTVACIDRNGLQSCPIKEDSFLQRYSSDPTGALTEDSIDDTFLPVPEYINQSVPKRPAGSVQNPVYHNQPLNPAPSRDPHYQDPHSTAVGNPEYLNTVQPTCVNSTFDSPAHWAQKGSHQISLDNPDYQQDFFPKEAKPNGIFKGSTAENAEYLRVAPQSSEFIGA

[4] = molecular target: Epidermal growth factor receptor (Homo sapiens, UniProt P00533, C797S/L858R/T790M)
Chain of Epidermal growth factor receptor (Homo sapiens, UniProt P00533, C797S/L858R/T790M) (P00533 25-1210 T790M/C797S/L858R limits assumed): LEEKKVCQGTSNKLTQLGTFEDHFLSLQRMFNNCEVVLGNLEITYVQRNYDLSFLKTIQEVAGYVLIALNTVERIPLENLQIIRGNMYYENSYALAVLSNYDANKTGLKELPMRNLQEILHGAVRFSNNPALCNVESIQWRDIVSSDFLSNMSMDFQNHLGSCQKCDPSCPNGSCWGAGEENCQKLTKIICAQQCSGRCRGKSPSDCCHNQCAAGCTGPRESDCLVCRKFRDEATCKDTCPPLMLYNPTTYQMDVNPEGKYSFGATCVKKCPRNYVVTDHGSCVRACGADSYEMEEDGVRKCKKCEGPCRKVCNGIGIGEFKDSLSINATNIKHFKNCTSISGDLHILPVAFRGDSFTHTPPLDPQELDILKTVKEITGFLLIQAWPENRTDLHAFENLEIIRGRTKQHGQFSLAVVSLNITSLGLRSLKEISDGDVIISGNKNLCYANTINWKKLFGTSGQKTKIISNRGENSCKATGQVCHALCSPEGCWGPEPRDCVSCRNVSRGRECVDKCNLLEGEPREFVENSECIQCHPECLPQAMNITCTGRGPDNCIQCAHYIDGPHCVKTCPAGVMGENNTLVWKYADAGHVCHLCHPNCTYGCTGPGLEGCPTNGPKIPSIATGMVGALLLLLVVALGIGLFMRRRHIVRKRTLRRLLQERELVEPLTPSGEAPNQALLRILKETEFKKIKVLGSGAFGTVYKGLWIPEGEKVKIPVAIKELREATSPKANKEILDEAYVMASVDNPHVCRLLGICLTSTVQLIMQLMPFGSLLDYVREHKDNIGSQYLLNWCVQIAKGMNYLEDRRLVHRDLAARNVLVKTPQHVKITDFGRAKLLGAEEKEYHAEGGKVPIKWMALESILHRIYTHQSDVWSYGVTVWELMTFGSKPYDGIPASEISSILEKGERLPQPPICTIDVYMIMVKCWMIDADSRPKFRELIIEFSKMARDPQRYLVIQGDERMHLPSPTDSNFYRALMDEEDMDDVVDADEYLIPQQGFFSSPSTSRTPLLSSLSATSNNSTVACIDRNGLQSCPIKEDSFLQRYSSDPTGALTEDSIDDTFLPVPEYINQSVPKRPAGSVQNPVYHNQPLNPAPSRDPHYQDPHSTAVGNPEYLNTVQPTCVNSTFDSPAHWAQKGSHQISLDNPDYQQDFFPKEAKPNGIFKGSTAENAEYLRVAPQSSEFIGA

[5] = AUC(0 to t) in CD1 mouse at 1 mg/kg, iv administered as single dose measured after 24 hrs by LC-MS/MS analysis; assay type: ADME, organism-based; set-up: time 24 hrs, dose 1 mg/kg, route iv; conditions: in vivo
[6] = molecular target: T1, Muscarinic acetylcholine receptor M2 (Homo sapiens) (UniProt P08172); experiment: Inhibition of muscarinic M2 receptor (unknown origin) at 10 uM relative to control
T1 sequence (whole entry): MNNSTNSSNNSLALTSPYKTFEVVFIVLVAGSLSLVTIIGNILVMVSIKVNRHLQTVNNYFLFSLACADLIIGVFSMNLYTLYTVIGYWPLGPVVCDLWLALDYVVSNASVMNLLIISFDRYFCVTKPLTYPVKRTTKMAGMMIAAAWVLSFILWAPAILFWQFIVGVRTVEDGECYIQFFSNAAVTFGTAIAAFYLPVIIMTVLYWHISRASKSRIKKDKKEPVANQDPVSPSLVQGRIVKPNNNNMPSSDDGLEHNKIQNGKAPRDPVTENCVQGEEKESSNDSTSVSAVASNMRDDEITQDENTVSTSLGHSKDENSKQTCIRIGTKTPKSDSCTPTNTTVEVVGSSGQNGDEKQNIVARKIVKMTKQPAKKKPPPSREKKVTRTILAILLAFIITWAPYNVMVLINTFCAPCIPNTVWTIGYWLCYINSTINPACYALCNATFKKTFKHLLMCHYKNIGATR

[7] = Tmax in CD1 mouse at 10 mg/kg, po administered as single dose measured after 24 hrs by LC-MS/MS analysis; assay type: ADME, organism-based; conditions: in vivo
NCI-H1975 = experiment: Antitumor activity against human NCI-H1975 cells harboring EGFR L858R/T790M mutant xenografted in Balb/c nude mouse assessed as in tumor growth inhibition at 10 mg/kg, po administered once daily measured after 14 days in presence of osimertinib; assay type: functional; conditions: NCI-H1975, 336 h, time 14 day, read-out: TGI
BaF3 = experiment: Antitumor activity against mouse BaF3 cells harboring EGFR L858R/C797S mutant allografted in Balb/c nude mouse assessed as in tumor growth inhibition at 10 mg/kg, po administered twice daily measured after 6 days; assay type: functional; conditions: BaF3, 144 h, time 6 day, read-out: TGI
[8] = AUC(0 to t) in CD1 mouse at 10 mg/kg, po administered as single dose measured after 24 hrs by LC-MS/MS analysis; assay type: ADME, organism-based; set-up: time 24 hrs, dose 10 mg/kg, route po; conditions: in vivo
[9] = Terminal half life in CD1 mouse at 1 mg/kg, iv administered as single dose measured after 24 hrs by LC-MS/MS analysis; assay type: ADME, organism-based; conditions: in vivo, read-out: beta t1/2 (converted)
[10] = molecular target: Angiotensin-converting enzyme (Homo sapiens, UniProt P12821); experiment: Inhibition of angiotensin converting enzyme (unknown origin) at 10 uM relative to control
Chain of Angiotensin-converting enzyme (P12821 whole entry): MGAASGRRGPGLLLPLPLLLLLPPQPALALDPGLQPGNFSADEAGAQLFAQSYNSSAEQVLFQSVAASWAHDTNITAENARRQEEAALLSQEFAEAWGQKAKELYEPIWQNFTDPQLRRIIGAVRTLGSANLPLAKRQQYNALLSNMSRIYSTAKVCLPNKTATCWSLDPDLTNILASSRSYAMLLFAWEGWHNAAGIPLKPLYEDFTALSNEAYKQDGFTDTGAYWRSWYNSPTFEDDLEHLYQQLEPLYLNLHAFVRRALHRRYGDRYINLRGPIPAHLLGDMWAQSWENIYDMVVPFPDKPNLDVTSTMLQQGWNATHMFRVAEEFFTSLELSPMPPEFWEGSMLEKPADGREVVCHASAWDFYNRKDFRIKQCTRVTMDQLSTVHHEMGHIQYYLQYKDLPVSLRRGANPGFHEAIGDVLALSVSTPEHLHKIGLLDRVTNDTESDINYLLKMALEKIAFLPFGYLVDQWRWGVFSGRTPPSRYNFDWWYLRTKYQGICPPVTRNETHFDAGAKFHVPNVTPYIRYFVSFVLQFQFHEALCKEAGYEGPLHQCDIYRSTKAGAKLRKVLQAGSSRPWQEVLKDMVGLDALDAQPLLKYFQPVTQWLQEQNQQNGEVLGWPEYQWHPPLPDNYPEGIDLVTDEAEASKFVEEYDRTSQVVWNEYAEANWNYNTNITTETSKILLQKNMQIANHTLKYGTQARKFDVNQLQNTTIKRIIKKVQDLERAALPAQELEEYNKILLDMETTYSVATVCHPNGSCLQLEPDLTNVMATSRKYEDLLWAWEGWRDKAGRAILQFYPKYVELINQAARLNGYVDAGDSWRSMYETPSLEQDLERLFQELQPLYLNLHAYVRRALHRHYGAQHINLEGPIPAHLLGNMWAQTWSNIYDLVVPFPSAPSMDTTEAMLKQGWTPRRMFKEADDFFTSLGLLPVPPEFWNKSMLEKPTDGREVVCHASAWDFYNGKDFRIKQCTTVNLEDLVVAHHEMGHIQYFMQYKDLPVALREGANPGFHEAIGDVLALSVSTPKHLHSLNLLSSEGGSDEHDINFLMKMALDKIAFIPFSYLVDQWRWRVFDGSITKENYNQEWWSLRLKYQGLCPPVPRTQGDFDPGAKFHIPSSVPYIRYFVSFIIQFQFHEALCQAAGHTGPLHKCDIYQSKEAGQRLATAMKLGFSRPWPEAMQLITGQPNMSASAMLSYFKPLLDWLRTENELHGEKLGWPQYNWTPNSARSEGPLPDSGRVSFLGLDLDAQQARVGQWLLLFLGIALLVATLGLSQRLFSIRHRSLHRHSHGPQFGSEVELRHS

[11] = molecular target: T2, Adenosine receptor A3 (Homo sapiens) (UniProt P0DMS8); experiment: Inhibition of adenosine A3 receptor (unknown origin) at 10 uM relative to control
T2 sequence (whole entry): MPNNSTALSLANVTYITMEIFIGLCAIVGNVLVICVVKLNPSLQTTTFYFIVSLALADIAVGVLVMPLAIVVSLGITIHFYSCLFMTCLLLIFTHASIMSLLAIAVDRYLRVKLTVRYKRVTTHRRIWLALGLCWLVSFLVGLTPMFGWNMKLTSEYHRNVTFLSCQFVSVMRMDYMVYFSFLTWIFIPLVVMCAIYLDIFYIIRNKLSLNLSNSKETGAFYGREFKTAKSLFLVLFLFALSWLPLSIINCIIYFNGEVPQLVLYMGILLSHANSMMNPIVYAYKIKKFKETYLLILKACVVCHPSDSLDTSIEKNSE

Tlast [2]: 24 h
IC50 [3]: 0.02 µM
IC50 [4]: 0.002 µM
AUC(0-t) at 24 h [5]: 0.803 µg·h/mL
inhibition [6]: 91%
Tmax [7]: 5 h
AUC(0-t) at 24 h [8]: 1.79 µg·h/mL
half-life [9]: 6.6 h
inhibition [10]: 96%
inhibition [11]: 94%
Structure (SMILES): Cc1c(C#Cc2ccc(CN3CCC(CO)CC3)cc2)cc(C(F)F)c2cn(C(C(=O)Nc3nccs3)c3ncn4c3CCC43CC3)nc12 (stereo not drawn)
Activity [1]: Non-Toxic
inhibition in vivo at 10 mg/kg (NCI-H1975): 100%
inhibition in vivo at 10 mg/kg (BaF3): 84%
